Measured values from patent US11020405B2, “Method for prevention or treatment of diabetic complications” (KANGWON NATIONAL UNIVERSITY UNIVERSITY-INDUSTRY COOPERATION …, priority 2017, dated 2021).

Tests used:
[1] = test system: human retinal endothelial cells (HRECs); test: Analysis of ROS of cells (H2DCFDA fluorescence); format: cell-based
Experimental: (§1) Purchased from Applied Cell Biology Research Institute (Cell Systems, Kirkland, Wash.), human retinal endothelial cells (HRECs) were cultured in an M19 medium, containing 20% FBS, 3 ng/mL bFGF, 5 U/mL heparin, 100 U/mL penicillin and […], in a 2% gelatin-coated plate.
(§2) Before the following Test Examples 2 to 7, the HRECs were cultured for 6 hr in a medium containing 1% FBS and an antibiotic agent, thus preparing HRECs of Test Example 1.
With reference to FIG. 3A, the HRECs of Test Example 1 were treated with 0 to 20 μM midazolam, cultured for 30 min, treated with 10 ng/mL VEGF and 10 μM H2DCFDA (Molecular Probes, Eugene, Oreg.), stained for 10 min in a phenol-red-free low-serum medium, and then measured using confocal microscopy to thus determine the fluorescence intensity of single cells.
With reference to FIG. 3B, the HRECs of Test Example 1 were subjected to the respective treatments below and cultured for 30 min. Upon treatment with 10 ng/mL VEGF, treatment with 10 μM H2DCFDA was performed therewith, or alternatively, treatment with 10 μM H2DCFDA was performed alone, followed by staining for 10 min in a phenol-red-free low-serum medium and then measurement via confocal microscopy to thus determine the fluorescence intensity of single cells.

[2] = test system: β-catenin; test: Analysis of adherens junction (β-catenin staining); format: cell-based, human; details: HRECs, 10 ng/mL VEGF 90 min with 20 μM midazolam, 5 μM BAPTA-AM, 1 mM NAC, 0.5 μM Trolox, 50 μM cystamine or 20 μM MDC (FIGS. 8, 9)
Experimental: as §1, §2
The HRECs of Test Example 1 were subjected to the respective treatments below and cultured for 30 min. Here, treatment with 10 ng/mL VEGF was performed for 90 min. Thereafter, the HRECs were treated with 1 mM 5-(biotinamido)pentylamine, incubated for 1 hr, fixed with 3.7% formaldehyde, treated with 0.2% triton X-100, treated with a blocking solution containing 138 mM NaCl, 0.1% Tween 20 and 2% BSA dissolved in a 20 mM Tris (pH 7.6) buffer, incubated for 30 min, incubated with a monoclonal β-catenin antibody (1:200; Santa Cruz Biotechnology) for 12 hr or more, incubated with a FITC-conjugated goat anti-mouse antibody, and measured using confocal microscopy. Some (the following i), ii), iii), iv)) of the results are shown in FIG. 8, and the β-catenin concentrations in the portions represented by the dotted lines in FIG. 8 are shown in FIG. 9. With reference to FIG. 9, 10 randomly selected cells were measured to determine the fluorescence intensity of single cells and thus quantify β-catenin.
β-catenin, which is a protein that mediates adherens junction like VE-cadherin, was analyzed to evaluate adherens junction.

[3] = test system: retinal vessels of diabetic mice; test: Fluorescein angiography for mouse model (retinal vascular leakage); format: in vivo, C57BL/6 mice; details: intravitreal 2 μL of 2 mM midazolam, 2 μM cystamine or 500 mM MDC (FIGS. 16, 17)
[4] = test system: kidneys of diabetic mice; test: Hyperglycemia-induced renal vascular leakage in diabetic mice (FITC-dextran); format: in vivo, C57BL/6 mice; details: 10 mg/kg midazolam intraperitoneal daily for 2 days (FIG. 20)
Experimental: FIGS. 20A and 20B show the preventive effects of midazolam against hyperglycemia-induced renal vascular leakage in diabetic mice. Six-week-old male C57BL/6 mice were administered with streptozotocin (150 mg/kg body weight) to give diabetic mouse models. Two weeks after streptozotocin injection, diabetic mice were administered 10 mg/kg midazolam by intraperitoneal injection daily for 2 days, and vascular leakage was investigated. The body weight of mice were measure in normal (19.9±0.3 g), diabetic (17.7±0.3 g), and midazolam supplemented diabetic mice (17.7±0.3 g). Blood glucose levels were also monitored in normal (123.5±6.5 mg/dL), diabetic (505.0±89.0 mg/dL), and midazolam supplemented diabetic mice (500.3±63.3 mg/dL). The mice were anesthetized with 3% isoflurane, and 1.25 mg of FITC-dextran was injected into the right ventricle of each mouse and allowed to circulate for 5 min. The kidneys were dissected, fixed, and embedded in OCT compound. Cryosections of kidneys were stained with nuclear counterstaining with DAPI. Representative images of vascular leakage in kidneys are shown in additional FIG. 20A. Scale bars, 100 μm. The results of vascular leakage quantitatively analyzed by measuring the fluorescence intensity of FITC-dextran in the kidneys are shown in additional FIG. 20B. (n=4 for normal and diabetic, n=6 for diabetic+Midazolam).

[5] = test system: VEGF; test: VEGF-induced vascular leakage in mouse ear (evans blue dye); format: in vivo, C57BL/6 mice; details: 24 hr before evans blue dye, 30 ng VEGF intradermally (FIG. 23)
Experimental: Six-week-old male C57BL/6 mice were administered 5 or 10 mg/kg midazolam by intraperitoneal injection. After 24 hr, mice were intravenously injected with 45 mg/kg evans blue dye. After 30 min circulation, 10 μl VEGF solution (30 ng) was injected intradermally into the dorsal part of ears. Representative images of vascular leakage in ears are shown in additional FIG. 23 (n=2/group).

Cc1ncc2n1-c1ccc(Cl)cc1C(c1ccccc1F)=NC2 [midazolam]
ROS concentration, concentration dependence ([1]; 0 to 20 μM midazolam 30 min, then 10 ng/mL VEGF (FIG. 3A)): ROS concentration was decreased with an increase in the concentration of midazolam
ROS concentration (VEGF-induced) compared to control ([1]; 10 ng/mL VEGF with 20 μM midazolam, 5 μM BAPTA-AM, 1 mM NAC, 0.5 μM Trolox, 50 μM cystamine or 20 μM MDC (FIG. 3B)): no significant ROS concentration increase was observed
β-catenin concentration / adherens junction disruption due to VEGF [2]: exhibited the effect of preventing the adherens junction disruption due to VEGF
retinal vascular leakage compared to normal mice [3]: vascular leakage was prevented
renal vascular leakage (FITC-dextran extravasation) [4]: blocked by midazolam administration
VEGF-induced vascular leakage in mouse ear ([5]; 5 mg/kg midazolam intraperitoneal): not at 5 mg/kg
VEGF-induced vascular leakage in mouse ear ([5]; 10 mg/kg midazolam intraperitoneal): suppressed
